Patent US8399521B2, “Methods of treating skin with aromatic skin-active ingredients” (Mary Kay Inc., priority 2008, dated 2013)
Each block holds one compound with its values, some of them ahead of it.

Key:
Type in all cases: biochemical
[1] = target: T1, COX-1 (Ovis aries, UniProt P05979); assay: Colorimetric COX (ovine) inhibitor screening assay, COX-1; conditions: negative = inhibition vs non-treated control; for Cox-1 Inhibition (0.020%): 0.020% test compound, Table 2
T1 construct: purchased Cayman Chemical 760111
T1 sequence (P05979 25-600): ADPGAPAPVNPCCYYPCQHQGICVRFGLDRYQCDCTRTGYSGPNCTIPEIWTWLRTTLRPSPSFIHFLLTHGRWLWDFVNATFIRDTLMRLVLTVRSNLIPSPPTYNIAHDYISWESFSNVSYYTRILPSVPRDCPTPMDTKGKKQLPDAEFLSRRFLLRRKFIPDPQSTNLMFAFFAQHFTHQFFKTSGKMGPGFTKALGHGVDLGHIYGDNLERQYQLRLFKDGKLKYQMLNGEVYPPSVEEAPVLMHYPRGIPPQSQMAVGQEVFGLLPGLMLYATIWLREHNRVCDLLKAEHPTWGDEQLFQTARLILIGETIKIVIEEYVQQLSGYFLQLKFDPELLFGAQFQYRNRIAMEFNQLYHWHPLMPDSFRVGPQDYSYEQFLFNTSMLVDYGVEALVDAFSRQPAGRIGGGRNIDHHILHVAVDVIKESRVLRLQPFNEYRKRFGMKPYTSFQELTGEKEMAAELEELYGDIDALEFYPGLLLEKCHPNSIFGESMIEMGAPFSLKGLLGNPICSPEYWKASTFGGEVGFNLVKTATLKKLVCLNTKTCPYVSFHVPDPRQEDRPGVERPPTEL
Text: (§1) Cyclooxygenase (COX) assay: An in vitro cyclooxygenase-1 and -2 (COX-1, -2) inhibition assay. […] The cyclooxygenase activity converts arachidonic acid to a hydroperoxy endoperoxide (Prostaglandin G2; PGG2) and the peroxidase component reduces the endoperoxide (Prostaglandin H2; PGH2) to the corresponding alcohol, the precursor of prostaglandins, thromboxanes, and prostacyclins. This COX Inhibitor Screening Assay measures the peroxidase component of cyclooxygenases. The peroxidase activity is assayed colorimetrically by monitoring the appearance of oxidized N,N,N′,N′-tetramethyl-p-phenylenediamine (TMPD). This inhibitor screening assay includes both COX-1 and COX-2 enzymes in order to screen isozyme-specific inhibitors.
(§2) Following manufacturer instructions for the Colormetric COX (ovine) Inhibitor screening assay (#760111, Cayman Chemical), purified cyclooxygnase enzyme (COX-1 or COX-2), heme and test compounds were mixed in assay buffer and incubated with shaking for 15 min at room temperature. Following incubation, arachidonic acid and colorimetric substrate were added to initiate the reaction and incubated for an additional 15 min at room temperature with shaking. Color progression was evaluated by fluoresecence plate reading at 590 nm. The percent inhibition of COX-1 or COX-2 activity was calculated compared to non-treated controls to determine the ability of test compounds to inhibit the activity of purified enzyme.

[2] = target: T2, 15-lipoxygenase (Glycine max, UniProt P08170); assay: Lipoxygenase (LO) inhibition assay; conditions: 0.1% test compound; negative = inhibition vs non-treated control; Table 2
T2 construct: purchased Cayman Chemical 760700
T2 sequence (P08170 1-839): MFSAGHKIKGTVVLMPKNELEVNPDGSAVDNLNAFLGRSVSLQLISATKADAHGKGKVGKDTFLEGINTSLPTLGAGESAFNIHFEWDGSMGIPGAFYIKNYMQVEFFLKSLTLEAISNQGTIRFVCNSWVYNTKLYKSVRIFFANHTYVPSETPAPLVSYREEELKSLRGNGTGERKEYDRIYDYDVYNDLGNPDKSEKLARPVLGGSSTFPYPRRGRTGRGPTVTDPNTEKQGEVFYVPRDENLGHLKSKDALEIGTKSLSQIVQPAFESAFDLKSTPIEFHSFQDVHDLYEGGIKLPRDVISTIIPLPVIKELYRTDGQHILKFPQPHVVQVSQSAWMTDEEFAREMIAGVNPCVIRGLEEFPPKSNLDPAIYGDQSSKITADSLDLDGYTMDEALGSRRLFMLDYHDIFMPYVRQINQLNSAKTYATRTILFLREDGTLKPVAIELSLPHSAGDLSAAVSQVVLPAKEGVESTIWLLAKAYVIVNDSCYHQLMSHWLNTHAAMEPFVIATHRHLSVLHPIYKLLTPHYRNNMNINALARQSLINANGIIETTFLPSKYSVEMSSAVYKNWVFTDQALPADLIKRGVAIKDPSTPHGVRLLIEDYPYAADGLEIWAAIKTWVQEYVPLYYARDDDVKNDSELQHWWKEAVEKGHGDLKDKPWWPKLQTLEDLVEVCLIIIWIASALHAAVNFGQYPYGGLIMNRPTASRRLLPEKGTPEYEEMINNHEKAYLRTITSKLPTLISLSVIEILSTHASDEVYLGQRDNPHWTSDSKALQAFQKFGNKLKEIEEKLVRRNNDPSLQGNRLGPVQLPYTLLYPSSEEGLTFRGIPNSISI
Protocol: Lipoxygenase (LO) assay: An in vitro lipoxygenase (LO) inhibition assay. LOs are non-heme iron-containing dioxygenases that catalyze the addition of molecular oxygen to fatty acids. Linoleate and arachidonate are the main substrates for LOs in plants and animals. […] This assay provides an accurate and convenient method for screening lipoxygenase inhibitors by measuring the hydroperoxides generated from the incubation of a lipoxygenase (5-, 12-, or 15-LO) with arachidonic acid.
Following incubation, arachidonic acid was added to initiate the reaction and mixtures incubated for an additional 10 min at room temperature. Colorimetric substrate was added to terminate catalysis and color progression was evaluated by fluorescence plate reading at 490 nm. The percent inhibition of lipoxyganse activity was calculated compared to non-treated controls to determine the ability of test compounds to inhibit the activity of purified enzyme.

[3] = target: T3, COX-2 (Ovis aries, UniProt P79208); assay: Colorimetric COX (ovine) inhibitor screening assay, COX-2; conditions: 0.001% test compound; for inhibition at 0.001 %: 0.25 h; for Cox-2 Inhibition (0.001%): negative = inhibition vs non-treated control
T3 construct: purchased Cayman Chemical 760111
T3 sequence (P79208 17-603): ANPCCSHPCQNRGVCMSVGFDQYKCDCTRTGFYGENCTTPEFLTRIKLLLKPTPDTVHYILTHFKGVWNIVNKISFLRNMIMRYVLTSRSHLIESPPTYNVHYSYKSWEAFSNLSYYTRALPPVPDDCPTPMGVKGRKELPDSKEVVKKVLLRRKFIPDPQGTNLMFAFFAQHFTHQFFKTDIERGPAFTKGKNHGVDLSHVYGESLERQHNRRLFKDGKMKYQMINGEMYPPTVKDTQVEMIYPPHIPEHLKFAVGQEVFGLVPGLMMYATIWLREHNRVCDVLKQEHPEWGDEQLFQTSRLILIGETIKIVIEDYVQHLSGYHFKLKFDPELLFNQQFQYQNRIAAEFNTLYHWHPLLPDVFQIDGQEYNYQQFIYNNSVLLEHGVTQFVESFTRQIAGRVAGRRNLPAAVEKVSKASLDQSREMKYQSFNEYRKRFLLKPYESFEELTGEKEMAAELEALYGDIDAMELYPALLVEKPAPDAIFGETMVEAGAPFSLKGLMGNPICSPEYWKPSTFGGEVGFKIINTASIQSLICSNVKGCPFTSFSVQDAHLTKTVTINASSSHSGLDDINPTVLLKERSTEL
Text: as §1, §2

[4] = target: T4, MMP9 (Homo sapiens, UniProt P14780); assay: Matrix metalloproteinase enzyme activity assay, MMP9; conditions: for inhibition at 0.01 % / MMP9 Inhibition (0.01%): 0.01% test compound, Table 3; for MMP9 Inhibition (0.001%): 0.001% test compound, Table 2; for MMP9 Inhibition (0.001%) / MMP9 Inhibition (0.01%): negative = inhibition vs diluent control
T4 construct: purchased BioMol International AK-410
Text: (§3) Matrix metalloproteinase enzyme activity (MMP3; MMP9) assay: An in vitro matrix metalloprotease (MMP) inhibition assay. MMPs are extracellular proteases that play a role in many normal and disease states by virtue of their broad substrate specificity. MMP3 substrates include collagens, fibronectins, and laminin; while MMP9 substrates include collagen VII, fibronectins and laminin. Using Colorimetric Drug Discovery kits from BioMol International for MMP3 (AK-400) and MMP-9 (AK-410), this assay is designed to measure protease activity of MMPs using a thiopeptide as a chromogenic substrate (Ac-PLG-[2-mercapto-4-methyl-pentanoyl]-LG-OC2H5)5,6. The MMP cleavage site peptide bond is replaced by a thioester bond in the thiopeptide. Hydrolysis of this bond by an MMP produces a sulfhydryl group, which reacts with DTNB [5,5′-dithiobis(2-nitrobenzoic acid), Ellman's reagent] to form 2-nitro-5-thiobenzoic acid, which can be detected by its absorbance at 412 nm (ε=13,600 M-1 cm-1 at pH 6.0 and above 7). Data is reflected as % inhibition of the purified enzyme activity.

[5] = target: T5, MMP3 (Homo sapiens, UniProt P08254); assay: Matrix metalloproteinase enzyme activity assay, MMP3; conditions: 0.001% test compound; negative = inhibition vs diluent control; Table 2
T5 construct: purchased BioMol International AK-400
Text: as §3

T4 sequence (P14780 107-444 limits assumed): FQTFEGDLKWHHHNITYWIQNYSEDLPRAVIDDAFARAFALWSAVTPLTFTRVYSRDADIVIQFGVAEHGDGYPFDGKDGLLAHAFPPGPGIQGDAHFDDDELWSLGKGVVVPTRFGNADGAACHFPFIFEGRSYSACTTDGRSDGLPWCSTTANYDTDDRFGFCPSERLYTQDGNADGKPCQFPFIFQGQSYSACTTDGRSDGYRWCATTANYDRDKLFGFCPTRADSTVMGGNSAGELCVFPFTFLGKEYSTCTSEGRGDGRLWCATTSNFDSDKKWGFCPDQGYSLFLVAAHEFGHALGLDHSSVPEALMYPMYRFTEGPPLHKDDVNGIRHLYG
T5 sequence (P08254 100-272 limits assumed): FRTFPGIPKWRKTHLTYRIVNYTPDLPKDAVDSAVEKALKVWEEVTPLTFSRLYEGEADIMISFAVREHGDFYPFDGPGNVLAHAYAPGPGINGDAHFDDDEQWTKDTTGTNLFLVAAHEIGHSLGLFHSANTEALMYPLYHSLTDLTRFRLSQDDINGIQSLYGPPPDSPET

Compound: CCCCCC1CCC(=O)O1 (stereo not drawn) [Aldehyde C-18, 5-pentyldihydrofuran-2(3H)-one]
- inhibition at 0.001 % ([3]; Table 3): 22.6%
- inhibition at 0.01 % [4]: 22.2%

Compound: 1-(1,2,3,4,5,6,7,8-octahydro-2,3,8,8-tetramethyl-2-naphthalenyl)ethan-1-one; 1-(2,3,8,8-tetramethyl-1,2,3,5,6,7,8,8a-octahydronaphthalen-2-yl)ethanone; and 1-(2,3,8,8-tetramethyl-1,2,3,4,6,7,8,8a-octahydronaphthalen-2-yl)ethanone [Iso E super]
- Cox-2 Inhibition (0.001%) ([3]; Table 3): −20.80%

Compound: 3a,4,5,6,7,7a-hexahydro-4,7-methano-1h-inden-5(or 6)-yl acetate [Cyclacet]
- LO Inhibition (0.1%) [2]: −26.37%

Compound: CC(=O)/C=C/C1=C(C)CCCC1(C)C [Beta Ionone, (3E)-4-(2,6,6-trimethylcyclohex-1-en-1-yl)but-3-en-2-one]
- MMP9 Inhibition (0.001%) [4]: −19.82%

Compound: CCCCCCCCCCCC=O [Aldehyde C-12 Lauric, 1-dodecanal]
- MMP9 Inhibition (0.001%) [4]: −27.64%

Compound: 3-hexen-1-ol (E) and (Z)
- Cox-2 Inhibition (0.001%) ([3]; Table 3): −23.56%
- MMP9 Inhibition (0.01%) [4]: −23.82%

Compound: CC/C=C(\C)C(O)CCCCC (stereo not drawn) [4-methyl-3-decen-5-ol]
- inhibition at 0.01 % [4]: 28.1%

Compound: CCCCCCCCC/C=C/C=O [2-dodecenal (E)]
- MMP9 Inhibition (0.001%) [4]: −24.98%

Compound: (2,4,6-)trimethyl-3-cyclohexene-1-carboxaldehyde and (3,5,6-)trimethyl-3-cyclohexene-1-carboxaldehyde [Iso Cyclo Citral]
- Cox-2 Inhibition (0.001%) ([3]; Table 3): −31.58%
- MMP9 Inhibition (0.01%) [4]: −21.78%

Compound: CC/C=C\CCCCC=O [Cis-6-Nonenal, cis-6-nonenal]
- inhibition at 0.001 % ([3]; Table 3): 27.1%
- inhibition at 0.01 % [4]: 19.2%

Compound: 2,6-nonadien-1-al (trans, trans; trans, cis)
- Cox-1 Inhibition (0.020%) [1]: −11.42%
- Cox-2 Inhibition (0.001%) ([3]; Table 2): −17.58%
- LO Inhibition (0.1%) [2]: −45.58%
- MMP3 Inhibition (0.001%) [5]: −20.34%
- MMP9 Inhibition (0.001%) [4]: −32.53%

Compound: CC(=O)OCCC(C)CCC=C(C)C (stereo not drawn) [Citronellyl Acetate, 3,7-dimethyl-6-octen-1-yl acetate]
- Cox-1 Inhibition (0.001%) ([1]; 0.001% test compound, Table 4): −27.99%
- inhibition at 0.001 % ([3]; Table 4): 20.9%

Compound: CCCC/C=C/C=C/C=O [2,4-nonadien-1-al]
- inhibition at 0.001 % ([3]; Table 2): 21.1%
- MMP3 Inhibition (0.001%) [5]: −23.75%
- MMP9 Inhibition (0.001%) [4]: −19.87%

More lines, now with the values ahead:

- Cox-1 Inhibition (0.020%) [1]: −18.50%
- LO Inhibition (0.1%) [2]: −37.86%
Compound: CC(=O)OC1CCC(C(C)(C)C)CC1 (stereo not drawn) [Vertenex ® H.C., 4-tert-butylcyclohexyl acetate]

- inhibition at 0.001 % ([3]; Table 3): 20.6%
- inhibition at 0.01 % [4]: 33%
Compound: O=C1CCCCCCCCCCCC(=O)OCCO1 [Ethylene Brassylate, 1,4-dioxacycloheptadecane-5,17-dione]

- inhibition at 0.01 % [4]: 22%
Compound: CCC/C=C\COC(C)=O [Leaf Acetate, cis-2-hexenyl acetate]

- inhibition at 0.001 % ([3]; Table 3): 23.3%
Compound: C=C1CCCC(C)(C)C1C(=O)OC (stereo not drawn) [Romascone ®, methyl 2,2-dimethyl-6-methylenecyclohexanecarboxylate]

- inhibition at 0.001 % ([3]; Table 3): 22.3%
Compound: CCC/C(CC(=O)CC)=N/O [Stemone, (Z)-5-(hydroxyimino)octan-3-one]

- LO Inhibition (0.1%) [2]: −20.45%
Compound: CC(C)=CCCC(C)C=O (stereo not drawn) [Melanol, 2,6-dimethyl-5-heptenal]

- inhibition at 0.001 % ([3]; Table 3): 36.1%
Compound: CC1=CCC(/C=C/C(C)(C)C(C)O)C1(C)C (stereo not drawn) [Polysantol, 3,3-dimethyl-5(2,2,3-trimethyl-3-cyclopenten-1-yl)-4-penten-2-ol]

- inhibition at 0.001 % ([3]; Table 3): 25.1%
- inhibition at 0.01 % [4]: 26.8%
Compound: CCOC(=O)C1C2C=CC(C2)C1C(C)C (stereo not drawn) [Herbanante, ethyl 3-isopropylbicyclo[2.2.1]hept-5-ene-2-carboxylate]

- MMP3 Inhibition (0.001%) [5]: −25.09%
Compound: CC(C)=CCCC1=CCCC(C)(C=O)C1 (stereo not drawn) [Precyclemone B, 1-methyl-3-(4-methylpent-3-enyl)cyclohex-3-enecarbaldehyde]
